# Values of other authors in US20250255842A1, “S[…]-RESOLVING LIPID MEDIATORS FOR TREATING LONG COVID-19” (Solutex GC, S.L., priority 2022, published 2025).
# Tested on: thrombus
# Conditions: administration of RvD4; less neutrophil infiltration, more pro-resolving monocytes
smiles,measurement,value
"CC/C=C\C[C@H](O)/C=C/C=C\C\C=C/C=C/C=C/[C@@H](O)[C@@H](O)CCC(=O)O [RvD4, 4S,5R,17S-trihydroxy-6E,8E,10Z,13Z,15E,19Z-docosahexaenoic acid]",Thrombus burden,significantly reduced
